Melting point, 40 to 42 °C:
COc1ccc(Cl)cc1NC(=O)CSc1n[nH]c(CNc2cccc(C)c2)n1 [Example 1, N-(5-chloro-2-methoxyphenyl)-2-((5-((m-tolylamino)methyl)-1H-1,2,4-triazol-3-yl)thio)acetamide]
Cc1cccc(NCc2nc(SCC(=O)Nc3ccccc3)n[nH]2)c1 [Example 2, N-Phenyl-2-((5-((m-tolylamino)methyl)-1H-1,2,4-triazol-3-yl)thio)acetamide]
Cc1cccc(NCc2nc(SCC(=O)Nc3cccc(F)c3)n[nH]2)c1 [Example 3, N-(3-fluorophenyl)-2-((5-((m-tolylamino)methyl)-1H-1,2,4-triazol-3-yl)thio)acetamide]
COc1ccc(NC(=O)CSc2n[nH]c(CNc3cccc(C)c3)n2)cc1 [Example 5, N-(4-methoxyphenyl)-2-((5-((m-tolylamino)methyl)-1H-1,2,4-triazol-3-yl)thio)acetamide]
Cc1cccc(NCc2nc(SCC(=O)Nc3ccc(Cl)c(Cl)c3)n[nH]2)c1 [Example 6, N-(3,4-dichlorophenyl)-2-((5-((m-tolylamino)methyl)-1H-1,2,4-triazol-3-yl)thio)acetamide]
COc1cc(NC(=O)CSc2n[nH]c(CNc3cccc(C)c3)n2)cc(OC)c1 [Example 7, N-(3,5-dimethoxyphenyl)-2-((5-((m-tolylamino)methyl)-1H-1,2,4-triazol-3-yl)thio)acetamide]
Cc1cccc(NCc2nc(SCC(=O)Nc3cc(C(F)(F)F)ccc3Cl)n[nH]2)c1 [Example 8, N-(2-chloro-5-(trifluoromethyl)phenyl)-2-((5-((m-tolylamino)methyl)-1H-1,2,4-triazol-3-yl)thio)acetamide]
O=C(CSc1n[nH]c(CNc2ccccc2)n1)Nc1ccccc1 [Example 9, N-phenyl-2-((5-((phenylamino)methyl)-1H-1,2,4-triazol-3-yl)thio)acetamide]
O=C(CSc1n[nH]c(CNc2ccccc2)n1)Nc1cccc(F)c1 [Example 10, N-(3-fluorophenyl)-2-((5-((phenylamino)methyl)-1H-1,2,4-triazol-3-yl)thio)acetamide]
O=C(CSc1n[nH]c(CNc2ccccc2)n1)Nc1cccc(Br)c1 [Example 11, N-(3-bromophenyl)-2-((5-((phenylamino)methyl)-1H-1,2,4-triazol-3-yl)thio)acetamide]
COc1ccc(NC(=O)CSc2n[nH]c(CNc3ccccc3)n2)cc1 [Example 12, N-(4-methoxyphenyl)-2-((5-((phenylamino)methyl)-1H-1,2,4-triazol-3-yl)thio)acetamide]
O=C(CSc1n[nH]c(CNc2ccccc2)n1)Nc1ccc(Cl)c(Cl)c1 [Example 13, N-(3,4-dichlorophenyl)-2-((5-((phenylamino)methyl)-1H-1,2,4-triazol-3-yl)thio)acetamide]
COc1cc(NC(=O)CSc2n[nH]c(CNc3ccccc3)n2)cc(OC)c1 [Example 14, N-(3,5-dimethoxyphenyl)-2-((5-((phenylamino)methyl)-1H-1,2,4-triazol-3-yl)thio)acetamide]
CC(=O)c1cccc(NC(=O)CSc2n[nH]c(NC(=S)NCc3ccccc3)n2)c1 [Example 18, N-(3-acetylphenyl)-2-((5-(3-benzylthioureido)-1H-1,2,4-triazol-3-yl)thio)acetamide]
O=C(CSc1n[nH]c(NC(=O)NCc2ccccc2)n1)Nc1ccc([N+](=O)[O-])cc1 [Example 19, 2-((5-(3-benzylureido)-1H-1,2,4-triazol-3-yl)thio)-N-(4-nitrophenyl)acetamide]
CC(=O)c1cccc(NC(=O)CSc2n[nH]c(NC(=O)NCc3ccccc3)n2)c1 [Example 20, N-(3-acetylphenyl)-2-((5-(3-benzylureido)-1H-1,2,4-triazol-3-yl)thio)acetamide]
Cc1cc([N+](=O)[O-])ccc1NC(=O)CSc1n[nH]c(NC(=O)NCc2ccccc2)n1 [Example 21, 2-((5-(3-benzylureido)-1H-1,2,4-triazol-3-yl)thio)-N-(2-methyl-4-nitrophenyl)acetamide]

— patent publication US10954197B2, “Cathepsin-D and angiogenesis inhibitors and compositions thereof for treating breast cancer” (YOGEE'S BIOINNOVATIONS PRIVATE LIMITED, priority 2017, dated 2021)
